According to BigSolDB 2.1:

Cc1cc(=O)c(C(=O)N[C@@H](C(=O)N[C@@H]2C(=O)N3C(C(=O)O)=C(CSc4nnnn4C)CS[C@H]23)c2ccc(O)cc2)c[nH]1
solubility (mole fraction)
Settings	278.2 K	283.2 K	288.2 K	293.2 K	298.2 K	303.2 K
in ethanol	0.000445	0.000508	0.000592	0.00069	0.000834	0.00101
in isopropanol	0.000118	0.00015	0.000187	0.000236	0.000297	0.000376
in n-butanol	9.53e-05	0.000115	0.000139	0.000166	0.0002	0.000245
in n-propanol	0.000242	0.00027	0.000305	0.000348	0.000407	0.000479
in water	4.04e-07	4.82e-07	5.8e-07	6.99e-07	8.5e-07	1.04e-06
